Experimental data taken from patent publication US20230270743A1, “USE OF BTK INHIBITORS IN THE TREATMENT OF DISEASES” (JIANGSU HENGRUI PHARMACEUTICALS CO., LTD., priority 2020, published 2023).

Test system: patients diagnosed with AQP4-IgG positive NMOSD
Assay: Clinical research of the compound of formula (I) in treating neuromyelitis optica spectrum disorder (NMOSD)
Format: in vivo, human
Procedure: Average annualized relapse rate (ARR)=total number of episodes of subjects/(number of subjects*observation time).
Example 1: Clinical Research of the Compound of Formula (I) in Treating Neuromyelitis Optica Spectrum Disorder (NMOSD)
Tablets of the compound of formula (I), specification: 100 mg/tablet.
1) Male or female from 18 to 75 years old (including 18 and 75 years old);
2) Patients diagnosed with AQP4-IgG positive NMOSD according to the 2015 IPND diagnostic criteria;
3) Requirements for history of relapse: 2 or more relapses of NMOSD requiring rescue therapy within 1 year before baseline, the rescue therapy can include IV glucocorticoid, plasma exchange, and/or intravenous immune globulin (IVIG);
4) Subjects must have been on stable treatment (if any) for more than 1 month before starting test drug treatment, defined as follows: • the amount of immunosuppressant (such as tacrolimus, azathioprine, mycophenolate) and/or oral corticosteroid must be stable or in the process of reduction, and the acute phase rescue therapy (such as IV glucocorticoid, plasma exchange, and/or intravenous immunoglobulin) must be completed for more than 1 month.
The test drug was administered to the qualified subjects in the morning on an empty stomach, once a day, one tablet at a time, and 100 mg per tablet.
At present, the study has completed the enrollment of all 10 subjects, and the average annualized relapse rate (ARR=the total number of episodes of subjects/(number of subjects*observation time)) of all subjects before enrollment was 2.1. By now, an annualized relapse rate of 0.7 for existing subjects after baseline medication has been observed. A patient with a 7-year history of NMOSD had severe symptoms (unable to stand) before participating in the trial. […] At the 7th week of medication, the patient could walk more than 20 meters with assistance, and could substantially take care of themself.

CC#CC(=O)N1CC[C@@H](n2cc(-c3ccc(Oc4c(F)cccc4F)cc3)c3c(N)n[nH]c(=O)c32)C1 [compound of formula (I), (R)-4-amino-1-(1-(but-2-ynoyl)pyrrolidin-3-yl)-3-(4-(2,6-difluorophenoxy)phenyl)-1,6-dihydro-7H-pyrrolo[2,3-d]pyridazin-7-one]
annualized relapse rate (ARR) after baseline medication (AQP4-IgG positive NMOSD subjects (10 enrolled), 100 mg tablet once a day, morning, empty stomach, average ARR before enrollment was 2.1, interim (by now)): 0.7
mobility of patient (patient, 7-year history of NMOSD, unable to stand before trial, after 4 weeks of administration, could stand up and walk several steps with assistance): significantly improved mobility
walking distance with assistance (same patient, at the 7th week of medication, could substantially take care of themself): more than 20 meters
